Legend:
[1] = biological target: Nav1.8 ion channel stably expressed on HEK293 cells (Homo sapiens (Human), UniProt Q9Y5Y9); assay: Inhibitory activity against Nav1.8, manual patch clamp; type: cell-based; details: resting protocol (-80 mV to 10 mV), 1 μM TTX, read-out: IC50 for the inhibition of Nav1.8 channel activity
[2] = Effect on body weight in rat incision pain model; type: in vivo, SD rats; details: i.g./one dose
Procedure: Nine SD rats, weighing 170-190 g, were selected for this study. The mechanical pain threshold was measured using an electronic aesthesiometer. Then an incision pain surgery was performed. During the surgery, after the rats were anesthetized with Zoletil (Zoletil-50, 250 mg, diluted with normal saline to 50 mL after being dissolved, injected at a dose of 2 mL per 200 g of body weight), a 1 cm long incision was made in the middle of the plantar surface of the left hind paw using a No. 10 scalpel blade, cutting through the skin and fascia, and the incision was closed using 3-0 sterile silk sutures. The injured area was disinfected with penicillin, and the animals were returned to their original place to recover overnight. After the overnight recovery, oral gavage administration was performed. Five hours after administration (about 24 h after surgery), the mechanical pain threshold was measured using an electronic aesthesiometer.
The analgesic efficacy of the compound of Example 16 in the rat incision pain model is shown in FIG. 3 and Table 7, and its effect on body weight is shown in FIG. 4. The analgesic efficacy of the compound of Example 32 in the rat incision pain model is shown in FIG. 5 and Table 7, and its effect on body weight is shown in FIG. 6.

| Structure (SMILES) | IC50 [1] [nM] | Effect on body weight of rats [2] |
| --- | --- | --- |
| CO/N=C(\N)c1cc(NC(=O)[C@@H]2O[C@@](C)(C(F)(F)F)[C@@H](C)[C@H]2c2ccc(F)c(F)c2OC)ccn1 [Example 16] | 0.33 | did not influence the body weight of rats |
| COc1c([C@H]2[C@H](C(=O)Nc3ccnc(/C(N)=N/O)c3)O[C@@](C)(C(F)(F)F)[C@H]2C)ccc(F)c1F [Example 32] | 0.93 | did not influence the body weight of rats |

From patent publication US20260055088A1, “HETEROCYCLIC COMPOUND, METHOD FOR PREPARING SAME, AND PHARMACEUTICAL USE THEREOF” (Jiangsu Hengrui Pharmaceuticals Co., Ltd., priority 2022, published 2026)
